{
  "source": "patent US11117887B2",
  "about": "“Aryl substituted pyrimidines for use in influenza virus infection” (Janssen Sciences Ireland Unlimited Company, priority 2016, dated 2021)",
  "key": {"[1]": {"tested_on": "influenza virus A/Taiwan/1/86 (H1N1)", "assay": "organism not typed", "format": "cell-based", "conditions": "72 h; CPE in infected MDCK cells, ATP levels (ATPlite), three days post-virus exposure"}, "in vitro": {"assay": "in vitro", "conditions": "dog"}},
  "data": [
    {"smiles": "Cc1nccc(N[C@H]2CCC[C@@H](Nc3nc(-c4c[nH]c5c(F)cc(F)cc45)ncc3F)C2)n1", "note": "[Compound 10]", "values": [
      {"measurement": "IC50", "setting": "[1]", "value": 20, "unit": "nM"},
      {"measurement": "CC50 at 3 days", "setting": "in vitro", "value": 2880, "unit": "nM"}
    ]},
    {"smiles": "Cc1cc(N[C@@H]2CCC[C@H](Nc3nc(-c4c[nH]c5c(F)cc(F)cc45)ncc3F)C2)ncn1", "note": "[Compound 11]", "values": [
      {"measurement": "IC50", "setting": "[1]", "value": 8, "unit": "nM"},
      {"measurement": "CC50 at 3 days", "setting": "in vitro", "value": 5970, "unit": "nM"}
    ]},
    {"smiles": "Nc1ncc(F)c(N[C@@H]2CCC[C@H](Nc3nc(-c4c[nH]c5c(F)cc(F)cc45)ncc3F)C2)n1", "note": "[Compound 12]", "values": [
      {"measurement": "IC50", "setting": "[1]", "value": 6, "unit": "nM"},
      {"measurement": "CC50 at 3 days", "setting": "in vitro", "value": "> 1000", "unit": "nM"}
    ]},
    {"smiles": "Nc1nc(N[C@H]2CCC[C@@H](Nc3nc(-c4c[nH]c5c(F)cc(F)cc45)ncc3F)C2)c2ccccc2n1", "note": "[Compound 13]", "values": [
      {"measurement": "IC50", "setting": "[1]", "value": 20, "unit": "nM"},
      {"measurement": "CC50 at 3 days", "setting": "in vitro", "value": 11600, "unit": "nM"}
    ]},
    {"smiles": "N#Cc1nccc(N[C@@H]2CCC[C@H](Nc3nc(-c4c[nH]c5c(F)cc(F)cc45)ncc3F)C2)n1", "note": "[Compound 14]", "values": [
      {"measurement": "IC50", "setting": "[1]", "value": 8, "unit": "nM"},
      {"measurement": "CC50 at 3 days", "setting": "in vitro", "value": 3150, "unit": "nM"},
      {"measurement": "melting point", "value": 215.6, "unit": "°C"}
    ]},
    {"smiles": "COc1nccc(N[C@@H]2CCC[C@H](Nc3nc(-c4c[nH]c5c(F)cc(F)cc45)ncc3F)C2)n1", "note": "[Compound 15]", "values": [
      {"measurement": "IC50", "setting": "[1]", "value": 75, "unit": "nM"},
      {"measurement": "CC50 at 3 days", "setting": "in vitro", "value": 3190, "unit": "nM"},
      {"measurement": "melting point", "value": 139.6, "unit": "°C"}
    ]},
    {"smiles": "Fc1cc(F)c2[nH]cc(-c3ncc(F)c(N[C@H]4CCC[C@@H](Nc5ccnc(Cl)n5)C4)n3)c2c1", "note": "[Compound 16]", "values": [
      {"measurement": "IC50", "setting": "[1]", "value": 8, "unit": "nM"},
      {"measurement": "CC50 at 3 days", "setting": "in vitro", "value": 2170, "unit": "nM"}
    ]},
    {"smiles": "Fc1cc(F)c2[nH]cc(-c3ncc(F)c(N[C@H]4CCC[C@@H](Nc5ccncn5)C4)n3)c2c1", "note": "[Compound 18]", "values": [
      {"measurement": "IC50", "setting": "[1]", "value": 8, "unit": "nM"},
      {"measurement": "CC50 at 3 days", "setting": "in vitro", "value": 8340, "unit": "nM"},
      {"measurement": "melting point", "value": 166.5, "unit": "°C"}
    ]},
    {"smiles": "Fc1cc(F)c2[nH]cc(-c3ncc(F)c(N[C@H]4CCC[C@@H](Nc5ncncc5F)C4)n3)c2c1", "note": "[Compound 19]", "values": [
      {"measurement": "IC50", "setting": "[1]", "value": 140, "unit": "nM"},
      {"measurement": "CC50 at 3 days", "setting": "in vitro", "value": "> 25000", "unit": "nM"},
      {"measurement": "melting point", "value": 215.6, "unit": "°C"}
    ]},
    {"smiles": "Cc1nc(-c2c[nH]c3c(F)cc(F)cc23)nc(N[C@@H]2CCC[C@H](Nc3cc(C(F)(F)F)nc(Cl)n3)C2)c1F", "note": "[Compound 35]", "values": [
      {"measurement": "IC50", "setting": "[1]", "value": 30, "unit": "nM"},
      {"measurement": "CC50 at 3 days", "setting": "in vitro", "value": 890, "unit": "nM"}
    ]},
    {"smiles": "Cc1nc(Cl)nc(N[C@@H]2CCC[C@H](Nc3nc(-c4c[nH]c5c(F)cc(F)cc45)nc(C)c3F)C2)c1F", "note": "[Compound 36]", "values": [
      {"measurement": "IC50", "setting": "[1]", "value": 2, "unit": "nM"},
      {"measurement": "CC50 at 3 days", "setting": "in vitro", "value": "> 25000", "unit": "nM"}
    ]},
    {"smiles": "Cc1nc(-c2c[nH]c3c(F)cc(F)cc23)nc(N[C@H]2CCC[C@@H](Nc3nc(Cl)nc4c3CCCC4)C2)c1F", "note": "[Compound 37]", "values": [
      {"measurement": "IC50", "setting": "[1]", "value": 11, "unit": "nM"},
      {"measurement": "CC50 at 3 days", "setting": "in vitro", "value": "> 25000", "unit": "nM"}
    ]},
    {"smiles": "Cc1nc(-c2c[nH]c3c(F)cc(F)cc23)nc(N[C@H]2CCC[C@@H](Nc3nc(Cl)nc4c3CCC4)C2)c1F", "note": "[Compound 38]", "values": [
      {"measurement": "IC50", "setting": "[1]", "value": 1, "unit": "nM"},
      {"measurement": "CC50 at 3 days", "setting": "in vitro", "value": "> 25000", "unit": "nM"}
    ]},
    {"smiles": "Cc1nc(-c2c[nH]c3c(F)cc(F)cc23)nc(N[C@H]2CCC[C@@H](Nc3nc(Cl)nc4sccc34)C2)c1F", "note": "[Compound 39]", "values": [
      {"measurement": "IC50", "setting": "[1]", "value": 3, "unit": "nM"},
      {"measurement": "CC50 at 3 days", "setting": "in vitro", "value": "> 25000", "unit": "nM"}
    ]},
    {"smiles": "Cc1nc(-c2c[nH]c3c(F)cc(F)cc23)nc(N[C@H]2CCC[C@@H](Nc3cncc(Cl)n3)C2)c1F", "note": "[Compound 40]", "values": [
      {"measurement": "IC50", "setting": "[1]", "value": 24, "unit": "nM"},
      {"measurement": "CC50 at 3 days", "setting": "in vitro", "value": "> 25000", "unit": "nM"},
      {"measurement": "melting point", "value": 201.8, "unit": "°C"}
    ]},
    {"smiles": "Cc1nc(-c2c[nH]c3c(F)cc(F)cc23)nc(N[C@H]2CCC[C@@H](Nc3ncc(C4CC4)c(Cl)n3)C2)c1F", "note": "[Compound 41]", "values": [
      {"measurement": "IC50", "setting": "[1]", "value": 39, "unit": "nM"},
      {"measurement": "CC50 at 3 days", "setting": "in vitro", "value": "> 25000", "unit": "nM"},
      {"measurement": "melting point", "value": 222.7, "unit": "°C"}
    ]},
    {"smiles": "Cc1nc(-c2c[nH]c3c(F)cc(F)cc23)nc(N[C@H]2CCC[C@@H](Nc3nc(Cl)ncc3C3CC3)C2)c1F", "note": "[Compound 42]", "values": [
      {"measurement": "IC50", "setting": "[1]", "value": 41, "unit": "nM"},
      {"measurement": "CC50 at 3 days", "setting": "in vitro", "value": "> 25000", "unit": "nM"}
    ]},
    {"smiles": "Cc1nc(-c2c[nH]c3c(F)cc(F)cc23)nc(N[C@H]2CCC[C@@H](Nc3nc(O)ncc3C#N)C2)c1F", "note": "[Compound 43]", "values": [
      {"measurement": "IC50", "setting": "[1]", "value": 0.6, "unit": "nM"},
      {"measurement": "CC50 at 3 days", "setting": "in vitro", "value": "> 25000", "unit": "nM"}
    ]},
    {"smiles": "Cc1cnc(Cl)nc1N[C@@H]1CCC[C@H](Nc2nc(-c3c[nH]c4c(F)cc(F)cc34)nc(C)c2F)C1", "note": "[Compound 44]", "values": [
      {"measurement": "IC50", "setting": "[1]", "value": 10, "unit": "nM"},
      {"measurement": "CC50 at 3 days", "setting": "in vitro", "value": "> 25000", "unit": "nM"},
      {"measurement": "melting point", "value": 185.4, "unit": "°C"}
    ]},
    {"smiles": "COc1cnc(Cl)nc1N[C@@H]1CCC[C@H](Nc2nc(-c3c[nH]c4c(F)cc(F)cc34)nc(C)c2F)C1", "note": "[Compound 45]", "values": [
      {"measurement": "IC50", "setting": "[1]", "value": 36, "unit": "nM"},
      {"measurement": "CC50 at 3 days", "setting": "in vitro", "value": "> 25000", "unit": "nM"},
      {"measurement": "melting point", "value": 246.6, "unit": "°C"}
    ]},
    {"smiles": "Cc1cc(N[C@@H]2CCC[C@H](Nc3nc(-c4c[nH]c5c(F)cc(F)cc45)nc(C)c3F)C2)ncn1", "note": "[Compound 46]", "values": [
      {"measurement": "IC50", "setting": "[1]", "value": 2, "unit": "nM"},
      {"measurement": "CC50 at 3 days", "setting": "in vitro", "value": "> 25000", "unit": "nM"}
    ]},
    {"smiles": "Cc1nc(-c2c[nH]c3c(F)cc(F)cc23)nc(N[C@H]2CCC[C@@H](Nc3ncnc4nc[nH]c34)C2)c1F", "note": "[Compound 47]", "values": [
      {"measurement": "IC50", "setting": "[1]", "value": 0.7, "unit": "nM"},
      {"measurement": "CC50 at 3 days", "setting": "in vitro", "value": 11000, "unit": "nM"}
    ]},
    {"smiles": "Cc1cc(N[C@@H]2CCC[C@H](Nc3nc(-c4c[nH]c5c(F)cc(F)cc45)nc(C(=O)O)c3F)C2)nc(Cl)n1", "note": "[Compound 54]", "values": [
      {"measurement": "IC50", "setting": "[1]", "value": 61, "unit": "nM"},
      {"measurement": "CC50 at 3 days", "setting": "in vitro", "value": "> 25000", "unit": "nM"}
    ]},
    {"smiles": "Cc1cc(N[C@@H]2CCC[C@H](Nc3nc(-c4c[nH]c5ncncc45)nc(C)c3F)C2)ncn1", "note": "[Compound 64]", "values": [
      {"measurement": "IC50", "setting": "[1]", "value": 8, "unit": "nM"},
      {"measurement": "CC50 at 3 days", "setting": "in vitro", "value": "> 25000", "unit": "nM"}
    ]},
    {"smiles": "Cc1ccnc(N[C@@H]2CCC[C@H](Nc3nc(-c4c[nH]c5ncncc45)nc(C)c3F)C2)n1", "note": "[Compound 65]", "values": [
      {"measurement": "IC50", "setting": "[1]", "value": 7, "unit": "nM"},
      {"measurement": "CC50 at 3 days", "setting": "in vitro", "value": "> 25000", "unit": "nM"}
    ]},
    {"smiles": "Cc1cc(O[C@@H]2CCC[C@H](Nc3nc(-c4c[nH]c5c(F)cc(F)cc45)nc(C)c3F)C2)ncn1", "note": "[Compound 71]", "values": [
      {"measurement": "IC50", "setting": "[1]", "value": 13, "unit": "nM"},
      {"measurement": "CC50 at 3 days", "setting": "in vitro", "value": 2200, "unit": "nM"}
    ]}
  ]
}
